This note sets out measurements from ChEMBL document CHEMBL5291721, “A preclinical secondary pharmacology resource illuminates target-adverse drug reaction associations of marketed drugs” (Nat Commun, 2023).

The target in assay [1] is T1, Muscarinic acetylcholine receptor M2 (Homo sapiens, UniProt P08172).
T1 sequence (P08172 whole entry): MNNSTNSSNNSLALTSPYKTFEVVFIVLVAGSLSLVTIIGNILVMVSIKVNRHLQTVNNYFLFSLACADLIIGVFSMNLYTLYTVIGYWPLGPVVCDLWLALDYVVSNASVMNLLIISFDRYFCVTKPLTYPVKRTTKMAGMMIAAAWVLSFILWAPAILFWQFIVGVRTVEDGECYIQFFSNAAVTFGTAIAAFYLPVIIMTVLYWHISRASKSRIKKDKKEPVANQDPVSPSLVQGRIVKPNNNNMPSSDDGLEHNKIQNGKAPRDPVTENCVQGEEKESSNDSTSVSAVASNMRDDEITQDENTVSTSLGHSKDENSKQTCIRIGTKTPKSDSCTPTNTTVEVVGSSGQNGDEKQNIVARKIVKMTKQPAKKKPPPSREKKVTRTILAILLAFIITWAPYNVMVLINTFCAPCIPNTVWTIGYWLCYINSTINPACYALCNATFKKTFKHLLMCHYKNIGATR
The class given is functional, cell-based.

Assay [2] has as its target T2, Gastrin/cholecystokinin type B receptor (Homo sapiens, UniProt P32239).
T2 sequence (P32239 whole entry): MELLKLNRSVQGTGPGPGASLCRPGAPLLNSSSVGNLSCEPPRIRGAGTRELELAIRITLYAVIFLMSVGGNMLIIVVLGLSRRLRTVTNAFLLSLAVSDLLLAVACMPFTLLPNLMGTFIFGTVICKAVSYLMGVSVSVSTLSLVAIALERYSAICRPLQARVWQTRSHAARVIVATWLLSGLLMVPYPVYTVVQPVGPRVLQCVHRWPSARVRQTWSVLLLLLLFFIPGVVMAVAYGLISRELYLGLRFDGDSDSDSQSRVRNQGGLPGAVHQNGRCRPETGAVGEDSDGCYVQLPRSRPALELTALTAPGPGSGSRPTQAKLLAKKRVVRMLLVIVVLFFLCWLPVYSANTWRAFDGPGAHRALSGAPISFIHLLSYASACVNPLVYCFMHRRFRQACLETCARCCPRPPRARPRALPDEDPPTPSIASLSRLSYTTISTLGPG

For assay [3], the target named is cGMP-inhibited 3',5'-cyclic phosphodiesterase 3A (Homo sapiens, UniProt Q14432). It is filed as functional.
Assay [4] concerns the target Neuronal acetylcholine receptor subunit alpha-4 (Homo sapiens, UniProt P43681).
Assay [5] deals with 3',5'-cyclic-AMP phosphodiesterase 4D (Homo sapiens, UniProt Q08499). The class given is functional.
For another assay, the target named is Vasopressin V2 receptor (Homo sapiens, UniProt P30518).
The target of assay [6] is Beta-1 adrenergic receptor (Homo sapiens, UniProt P08588). The class given is functional.
The target of the next assay is T3, Estrogen receptor (Homo sapiens, UniProt P03372).
T3 sequence (P03372 whole entry): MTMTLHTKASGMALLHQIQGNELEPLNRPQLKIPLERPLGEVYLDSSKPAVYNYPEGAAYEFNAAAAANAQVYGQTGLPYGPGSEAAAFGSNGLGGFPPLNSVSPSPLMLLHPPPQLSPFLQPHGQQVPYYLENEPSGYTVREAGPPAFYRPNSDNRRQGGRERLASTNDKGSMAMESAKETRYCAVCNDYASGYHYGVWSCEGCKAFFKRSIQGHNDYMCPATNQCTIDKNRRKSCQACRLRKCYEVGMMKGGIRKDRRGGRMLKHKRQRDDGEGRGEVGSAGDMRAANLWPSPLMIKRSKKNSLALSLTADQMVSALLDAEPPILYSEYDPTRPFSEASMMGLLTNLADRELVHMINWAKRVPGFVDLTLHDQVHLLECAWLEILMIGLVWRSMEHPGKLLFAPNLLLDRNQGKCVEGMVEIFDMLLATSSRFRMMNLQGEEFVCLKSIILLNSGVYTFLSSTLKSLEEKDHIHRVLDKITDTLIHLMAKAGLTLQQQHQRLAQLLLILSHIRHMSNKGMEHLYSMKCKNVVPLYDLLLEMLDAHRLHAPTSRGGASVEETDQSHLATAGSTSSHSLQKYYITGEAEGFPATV

Assay [7] concerns the target T4, 5-hydroxytryptamine receptor 1A (Homo sapiens, UniProt P08908).
T4 sequence (P08908 whole entry): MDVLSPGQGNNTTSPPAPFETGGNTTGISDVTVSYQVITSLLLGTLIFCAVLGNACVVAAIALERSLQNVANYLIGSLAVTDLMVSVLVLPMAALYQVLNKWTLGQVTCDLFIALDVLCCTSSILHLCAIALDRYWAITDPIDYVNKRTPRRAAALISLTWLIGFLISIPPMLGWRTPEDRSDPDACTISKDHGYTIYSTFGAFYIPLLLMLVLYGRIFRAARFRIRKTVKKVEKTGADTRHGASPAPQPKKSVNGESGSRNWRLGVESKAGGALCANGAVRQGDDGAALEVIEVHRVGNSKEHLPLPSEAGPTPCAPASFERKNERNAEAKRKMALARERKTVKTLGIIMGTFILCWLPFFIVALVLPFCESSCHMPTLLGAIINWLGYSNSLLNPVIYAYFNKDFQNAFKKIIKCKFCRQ
It is filed as functional, cell-based.

A further assay deals with T5, Thromboxane A2 receptor (Homo sapiens, UniProt P21731).
T5 sequence (P21731 whole entry): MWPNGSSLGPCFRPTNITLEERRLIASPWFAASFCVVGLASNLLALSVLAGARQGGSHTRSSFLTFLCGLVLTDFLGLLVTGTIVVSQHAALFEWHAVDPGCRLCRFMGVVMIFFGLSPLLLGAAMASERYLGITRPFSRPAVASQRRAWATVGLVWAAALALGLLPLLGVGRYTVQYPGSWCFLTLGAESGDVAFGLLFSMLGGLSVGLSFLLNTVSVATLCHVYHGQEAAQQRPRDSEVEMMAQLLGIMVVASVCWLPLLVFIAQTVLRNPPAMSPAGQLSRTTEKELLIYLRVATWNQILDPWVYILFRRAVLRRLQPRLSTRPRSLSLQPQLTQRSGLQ

Another assay addresses T6, Adenosine receptor A1 (Homo sapiens, UniProt P30542).
T6 sequence (P30542 whole entry): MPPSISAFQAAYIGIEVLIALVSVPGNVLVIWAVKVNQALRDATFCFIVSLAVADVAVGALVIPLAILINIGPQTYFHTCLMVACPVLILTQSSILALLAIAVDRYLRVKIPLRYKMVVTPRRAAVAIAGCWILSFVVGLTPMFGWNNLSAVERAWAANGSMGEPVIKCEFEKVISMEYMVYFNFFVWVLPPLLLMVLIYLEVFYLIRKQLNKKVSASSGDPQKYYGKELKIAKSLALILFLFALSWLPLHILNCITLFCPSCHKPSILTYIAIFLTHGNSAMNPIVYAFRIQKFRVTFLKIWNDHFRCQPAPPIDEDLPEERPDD
Note: assay procedure not described here.

Sequence of Neuronal acetylcholine receptor subunit alpha-4 (P43681 whole entry): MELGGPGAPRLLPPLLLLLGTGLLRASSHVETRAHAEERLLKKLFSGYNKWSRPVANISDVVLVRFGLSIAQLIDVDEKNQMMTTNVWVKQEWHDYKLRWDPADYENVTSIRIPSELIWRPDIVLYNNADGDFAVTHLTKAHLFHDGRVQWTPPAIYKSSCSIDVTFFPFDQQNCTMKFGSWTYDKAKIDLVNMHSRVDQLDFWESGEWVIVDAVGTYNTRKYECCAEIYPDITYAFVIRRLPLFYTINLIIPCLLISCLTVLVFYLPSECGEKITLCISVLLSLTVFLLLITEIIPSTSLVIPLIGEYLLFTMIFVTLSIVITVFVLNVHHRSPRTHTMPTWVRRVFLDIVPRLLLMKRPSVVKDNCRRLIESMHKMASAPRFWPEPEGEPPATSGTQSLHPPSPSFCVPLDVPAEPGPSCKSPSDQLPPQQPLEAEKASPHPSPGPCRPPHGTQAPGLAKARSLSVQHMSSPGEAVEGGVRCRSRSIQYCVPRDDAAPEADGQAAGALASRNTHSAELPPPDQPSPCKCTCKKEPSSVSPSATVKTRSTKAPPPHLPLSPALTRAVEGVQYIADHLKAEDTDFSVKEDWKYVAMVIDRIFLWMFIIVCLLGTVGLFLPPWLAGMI
Sequence of cGMP-inhibited 3',5'-cyclic phosphodiesterase 3A (Q14432 whole entry): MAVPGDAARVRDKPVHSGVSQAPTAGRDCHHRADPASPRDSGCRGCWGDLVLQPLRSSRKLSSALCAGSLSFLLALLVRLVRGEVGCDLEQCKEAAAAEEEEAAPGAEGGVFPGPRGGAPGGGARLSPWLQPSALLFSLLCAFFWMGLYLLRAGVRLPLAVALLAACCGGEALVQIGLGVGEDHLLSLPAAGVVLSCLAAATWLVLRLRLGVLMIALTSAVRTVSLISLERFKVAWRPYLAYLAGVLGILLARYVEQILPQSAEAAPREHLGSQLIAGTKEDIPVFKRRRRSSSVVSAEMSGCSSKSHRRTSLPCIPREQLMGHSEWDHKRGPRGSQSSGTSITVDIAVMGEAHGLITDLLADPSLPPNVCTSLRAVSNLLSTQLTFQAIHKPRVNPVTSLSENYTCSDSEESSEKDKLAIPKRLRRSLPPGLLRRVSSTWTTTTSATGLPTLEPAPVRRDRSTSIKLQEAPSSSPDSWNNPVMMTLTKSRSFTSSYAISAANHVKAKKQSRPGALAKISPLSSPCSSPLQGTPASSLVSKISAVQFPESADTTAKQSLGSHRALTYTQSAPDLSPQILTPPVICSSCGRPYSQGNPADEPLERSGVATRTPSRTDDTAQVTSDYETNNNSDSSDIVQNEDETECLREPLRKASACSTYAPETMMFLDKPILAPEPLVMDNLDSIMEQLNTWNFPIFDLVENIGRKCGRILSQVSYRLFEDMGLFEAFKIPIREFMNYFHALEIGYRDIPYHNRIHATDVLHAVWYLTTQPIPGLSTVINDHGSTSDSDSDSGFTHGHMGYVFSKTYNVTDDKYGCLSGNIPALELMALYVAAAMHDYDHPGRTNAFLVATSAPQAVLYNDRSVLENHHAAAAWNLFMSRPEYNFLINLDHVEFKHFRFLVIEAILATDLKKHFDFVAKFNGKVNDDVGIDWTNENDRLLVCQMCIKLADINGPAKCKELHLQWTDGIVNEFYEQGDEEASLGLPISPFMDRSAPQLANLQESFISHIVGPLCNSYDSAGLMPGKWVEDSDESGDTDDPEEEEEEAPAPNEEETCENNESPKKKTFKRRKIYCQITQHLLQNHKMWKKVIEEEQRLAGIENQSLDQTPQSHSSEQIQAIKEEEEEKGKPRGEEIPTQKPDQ
Sequence of Beta-1 adrenergic receptor (P08588 whole entry): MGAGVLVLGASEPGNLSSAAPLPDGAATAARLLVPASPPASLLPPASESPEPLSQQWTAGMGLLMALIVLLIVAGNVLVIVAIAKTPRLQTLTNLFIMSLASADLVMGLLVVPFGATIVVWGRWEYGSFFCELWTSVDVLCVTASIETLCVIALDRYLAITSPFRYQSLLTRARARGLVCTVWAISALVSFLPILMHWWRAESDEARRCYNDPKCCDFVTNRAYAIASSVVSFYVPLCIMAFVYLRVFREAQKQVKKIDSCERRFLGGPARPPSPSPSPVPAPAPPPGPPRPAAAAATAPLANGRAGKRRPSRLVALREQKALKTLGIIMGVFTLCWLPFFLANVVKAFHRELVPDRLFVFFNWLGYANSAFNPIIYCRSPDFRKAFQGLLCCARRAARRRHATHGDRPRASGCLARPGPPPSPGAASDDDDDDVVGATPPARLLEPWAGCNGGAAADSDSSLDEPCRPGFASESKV
Sequence of 3',5'-cyclic-AMP phosphodiesterase 4D (Q08499 whole entry): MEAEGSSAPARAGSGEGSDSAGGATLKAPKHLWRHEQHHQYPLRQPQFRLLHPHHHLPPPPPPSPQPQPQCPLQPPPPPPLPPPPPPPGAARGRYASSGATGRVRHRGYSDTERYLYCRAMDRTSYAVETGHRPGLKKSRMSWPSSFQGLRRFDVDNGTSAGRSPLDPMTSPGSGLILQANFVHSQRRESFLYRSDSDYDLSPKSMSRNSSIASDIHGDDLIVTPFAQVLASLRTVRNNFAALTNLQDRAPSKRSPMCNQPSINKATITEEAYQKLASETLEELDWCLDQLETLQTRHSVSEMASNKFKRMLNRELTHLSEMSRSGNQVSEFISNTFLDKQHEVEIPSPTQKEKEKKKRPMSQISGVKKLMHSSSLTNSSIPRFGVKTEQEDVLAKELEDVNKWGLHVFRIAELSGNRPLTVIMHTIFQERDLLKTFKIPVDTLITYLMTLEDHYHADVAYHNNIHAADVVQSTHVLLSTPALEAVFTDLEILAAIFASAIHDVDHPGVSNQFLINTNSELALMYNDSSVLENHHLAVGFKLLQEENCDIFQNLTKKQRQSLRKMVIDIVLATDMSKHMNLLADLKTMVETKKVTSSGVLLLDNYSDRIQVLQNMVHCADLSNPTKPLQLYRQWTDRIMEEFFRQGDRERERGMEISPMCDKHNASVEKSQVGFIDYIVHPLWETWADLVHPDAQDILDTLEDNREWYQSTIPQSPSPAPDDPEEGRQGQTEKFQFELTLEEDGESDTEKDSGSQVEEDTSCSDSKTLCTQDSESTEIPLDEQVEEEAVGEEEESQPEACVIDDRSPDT

By AC50 is commonly meant the concentration giving half of the maximal activity seen. Higher therefore signals weaker potency. For the molecule `CC(C)(N)Cc1ccccc1` [PHENTERMINE], the AC50 in [1] is > 10 µM; in assay [2], > 30 µM; in assay [3] it was > 30 µM; in assay [4], > 10 µM; in assay [5], > 30 µM; at Vasopressin V2 receptor it was > 30 µM. Besides, the AC50 is > 10 µM in assay [6]; > 30 µM at Estrogen receptor; > 10 µM in assay [7]; > 30 µM at Thromboxane A2 receptor; > 30 µM on Adenosine receptor A1.

Regarding `CCCCOC(=O)C(=O)Nc1cccc(-c2nnn[nH]2)c1` [TAZANOLAST], the AC50 (in assay [1]; in assay [2]; in assay [3]; in [4]; in assay [5]; on Vasopressin V2 receptor) was > 30 µM throughout. Moreover, the AC50 (in assay [6]; at Estrogen receptor; in assay [7]; at Thromboxane A2 receptor; at Adenosine receptor A1) was > 30 µM in each case.

Consider `Cc1cccc(Nc2ccncc2S(=O)(=O)NC(=O)NC(C)C)c1` [TORSEMIDE], for which the AC50 in [1] was > 10 µM; in assay [2] it was > 30 µM; in assay [3], > 30 µM; in assay [4] it was > 30 µM; in assay [5] it was > 30 µM; at Vasopressin V2 receptor, > 30 µM. Also, the half-maximal activity concentration (AC50) is > 10 µM in assay [6]; > 10 µM on Estrogen receptor; > 10 µM in [7]; 20.8 µM on Thromboxane A2 receptor; > 30 µM at Adenosine receptor A1.

With `CCCCC[C@H](O)CC[C@@H]1[C@H]2Cc3cccc(OCC(=O)O)c3C[C@H]2C[C@H]1O` [TREPROSTINIL], the AC50 (in [1]; in assay [2]; in assay [3]; in assay [4]; in assay [5]; on Vasopressin V2 receptor) was > 30 µM each time. Moreover, the AC50 (in [6]; on Estrogen receptor; in assay [7]; at Thromboxane A2 receptor; on Adenosine receptor A1) was > 30 µM in each case.

As to `CC1=C(/C=C/C(C)=C/C=C/C(C)=C/C(=O)Oc2c(C)c(C)c3c(c2C)CCC(C)(CCCC(C)CCCC(C)CCCC(C)C)O3)C(C)(C)CCC1` (stereo not given) [TRETINOIN TOCOFERIL], the AC50 (in assay [1]; in assay [2]; in assay [3]; in assay [4]; in assay [5]; at Vasopressin V2 receptor) was > 30 µM in each case. Further, the AC50 (in [6]; at Estrogen receptor; in assay [7]; on Thromboxane A2 receptor; on Adenosine receptor A1) was > 30 µM each time.

Regarding `CN(C)CCOCC(=O)NC12CC3CC(CC(C3)C1)C2` [TROMANTADINE], the AC50 (in [1]; in assay [2]; in [3]; in assay [4]; in [5]; on Vasopressin V2 receptor) was > 30 µM in each case. Besides, the AC50 (in assay [6]; on Estrogen receptor; in assay [7]; at Thromboxane A2 receptor; at Adenosine receptor A1) was > 30 µM throughout.

Consider `OCC(CO)N[C@H]1C[C@](O)(CO)[C@@H](O)[C@H](O)[C@H]1O` [VOGLIBOSE], for which the AC50 (in assay [1]; in assay [2]; in assay [3]; in assay [4]; in assay [5]; on Vasopressin V2 receptor) was > 30 µM each time. Further, the concentration at half-maximal activity (AC50) (in assay [6]; on Estrogen receptor; in assay [7]; on Thromboxane A2 receptor; at Adenosine receptor A1) was > 30 µM each time.

Regarding `CCN(C(C)=O)c1cccc(-c2ccnc3c(C#N)cnn23)c1` [ZALEPLON], the AC50 is > 10 µM in assay [1]; > 30 µM in [2]; 10 µM in assay [3]; > 30 µM in assay [4]; > 30 µM in assay [5]; > 30 µM at Vasopressin V2 receptor. Also, the AC50 is > 30 µM in [6]; > 30 µM on Estrogen receptor; > 10 µM in assay [7]; > 30 µM at Thromboxane A2 receptor; > 30 µM on Adenosine receptor A1.

Turning to SITOSTEROLS, the AC50 in assay [1] is > 30 µM; in assay [2] it was > 10 µM; in assay [3], > 10 µM; in assay [4] it was > 30 µM; in assay [5], > 10 µM; on Vasopressin V2 receptor, > 30 µM. Also, the AC50 (in assay [6]; on Estrogen receptor; in assay [7]; at Thromboxane A2 receptor; at Adenosine receptor A1) was > 30 µM throughout.

As for TEPRENONE, the AC50 in assay [1] was > 10 µM; in assay [2], > 30 µM; in assay [3] it was > 30 µM; in [4], > 10 µM; in [5], > 30 µM; on Vasopressin V2 receptor it was > 30 µM. Also, the AC50 (in assay [6]; on Estrogen receptor; in assay [7]; on Thromboxane A2 receptor; on Adenosine receptor A1) was > 30 µM in each case.
